Measured values as given in ChEMBL document CHEMBL5150017, “Mechanism of Action and Structure-Activity Relationship of α-Conotoxin Mr1.1 at the Human α9α10 Nicotinic Acetylcholine Receptor” (J Med Chem, 2022).
Calls of active or inactive are those of the source. The calls are words filed in the database; no cut-off is given here. Positions of bridges follow the written chain, without caps; N, C: chain ends. Non-standard residues stand in square brackets, D forms with d. Residues, ends and D or L forms follow the SMILES beside them. ξ: configuration not given here. Cit = NC(=O)NCCC[C@H](N)C(=O)O; Dap = NC[C@H](N)C(=O)O; ξDab = NCCC(N)C(=O)O; ξDap = NCC(N)C(=O)O

Each compound was assayed against Neuronal acetylcholine receptor; alpha9/alpha10 (Homo sapiens) (UniProt Q9UGM1+Q9GZZ6) (assay: Antagonist activity at human alpha9alpha10 nAChR expressed in Xenopus laevis oocytes assessed as inhibition of ACh-induced current amplitude at -80 mV holding potential at 100 nM by two-electrode voltage clamp method). Details: Oocyte.
Format: cell-based
CC[C@H](C)[C@@H]1NC(=O)[C@H](CC(=O)O)NC(=O)[C@@H]2CCCN2C(=O)[C@H](CC(N)=O)NC(=O)[C@H](CC(N)=O)NC(=O)[C@H](C(C)C)NC(=O)[C@H](CO)NC(=O)[C@@H]2CSSC[C@H](NC(=O)CN)C(=O)N[C@@H](CSSC[C@@H](C(=O)N[C@@H](Cc3ccc(O)cc3)C(N)=O)NC1=O)C(=O)N[C@@H](CO)C(=O)N[C@@H](Cc1cnc[nH]1)C(=O)N1CCC[C@H]1C(=O)N[C@@H](C)C(=O)N2 (H-GCCSHPACSVNNPDICY-NH2; disulfide 2-8, 3-16) was tested, and the inhibition was 15%.
In the case of CC[C@H](C)[C@@H]1NC(=O)[C@H](CC(=O)O)NC(=O)[C@@H]2CCCN2C(=O)[C@H](CC(N)=O)NC(=O)[C@H](CC(N)=O)NC(=O)[C@H](C(C)C)NC(=O)C(CCN)NC(=O)[C@@H]2CSSC[C@H](NC(=O)CN)C(=O)N[C@@H](CSSC[C@@H](C(N)=O)NC1=O)C(=O)N[C@@H](CO)C(=O)N[C@@H](Cc1cnc[nH]1)C(=O)N1CCC[C@H]1C(=O)N[C@@H](C)C(=O)N2 (stereo not given in full) (H-GCCSHPAC[ξDab]VNNPDIC-NH2; disulfide 2-8, 3-16), the inhibition is reported as 15%.
CC[C@H](C)[C@@H]1NC(=O)[C@H](CC(=O)O)NC(=O)[C@@H]2CCCN2C(=O)[C@H](CC(N)=O)NC(=O)[C@H](CC(N)=O)NC(=O)[C@H](C(C)C)NC(=O)[C@H](CO)NC(=O)[C@@H]2CSSC[C@H](NC(=O)CN)C(=O)N[C@@H](CSSC[C@@H](C(=O)N[C@@H](CC(C)C)C(N)=O)NC1=O)C(=O)N[C@@H](CO)C(=O)N[C@@H](Cc1cnc[nH]1)C(=O)N1CCC[C@H]1C(=O)N[C@@H](C)C(=O)N2 (H-GCCSHPACSVNNPDICL-NH2; disulfide 2-8, 3-16) was tested, and the inhibition was 15%.
In the case of CC[C@H](C)[C@@H]1NC(=O)[C@H](CC(=O)O)NC(=O)[C@@H]2CCCN2C(=O)[C@H](CC(N)=O)NC(=O)[C@H](CC(N)=O)NC(=O)[C@H](CC(=O)O)NC(=O)[C@H](CO)NC(=O)[C@@H]2CSSC[C@H](NC(=O)CN)C(=O)N[C@@H](CSSC[C@@H](C(N)=O)NC1=O)C(=O)N[C@@H](CO)C(=O)N[C@@H](Cc1cnc[nH]1)C(=O)N1CCC[C@H]1C(=O)N[C@@H](C)C(=O)N2 (H-GCCSHPACSDNNPDIC-NH2; disulfide 2-8, 3-16), the inhibition is reported as less than 5%.
Compound CC[C@H](C)[C@@H]1NC(=O)[C@H](CC(=O)O)NC(=O)[C@@H]2CCCN2C(=O)[C@H](CC(N)=O)NC(=O)[C@H](CC(N)=O)NC(=O)C(CCN)NC(=O)[C@H](CO)NC(=O)[C@@H]2CSSC[C@H](NC(=O)CN)C(=O)N[C@@H](CSSC[C@@H](C(N)=O)NC1=O)C(=O)N[C@@H](CO)C(=O)N[C@@H](Cc1cnc[nH]1)C(=O)N1CCC[C@H]1C(=O)N[C@@H](C)C(=O)N2 (stereo not given in full) (H-GCCSHPACS[ξDab]NNPDIC-NH2; disulfide 2-8, 3-16) has an inhibition of 35%.
CC[C@H](C)[C@@H]1NC(=O)[C@H](CC(=O)O)NC(=O)[C@@H]2CCCN2C(=O)[C@H](CC(N)=O)NC(=O)[C@H](CC(N)=O)NC(=O)[C@H](C(C)C)NC(=O)[C@H](CO)NC(=O)[C@@H]2CSSC[C@H](NC(=O)CN)C(=O)N[C@@H](CSSC[C@@H](C(N)=O)NC1=O)C(=O)N[C@@H](CO)C(=O)N[C@@H](CCCNC(=N)N)C(=O)N1CCC[C@H]1C(=O)N[C@@H](C)C(=O)N2 (H-GCCSRPACSVNNPDIC-NH2; disulfide 2-8, 3-16) showed an inhibition of 10%.
In the case of CC[C@H](C)[C@@H]1NC(=O)[C@H](CC(=O)O)NC(=O)[C@@H]2CCCN2C(=O)[C@H](CC(N)=O)NC(=O)[C@H](CC(N)=O)NC(=O)[C@H](C(C)C)NC(=O)[C@H](Cc2ccc(O)cc2)NC(=O)[C@@H]2CSSC[C@H](NC(=O)CN)C(=O)N[C@@H](CSSC[C@@H](C(N)=O)NC1=O)C(=O)N[C@@H](CO)C(=O)N[C@@H](Cc1cnc[nH]1)C(=O)N1CCC[C@H]1C(=O)N[C@@H](C)C(=O)N2 (H-GCCSHPACYVNNPDIC-NH2; disulfide 2-8, 3-16), the inhibition is reported as 5%.
CC[C@H](C)[C@@H]1NC(=O)[C@H](CC(=O)O)NC(=O)[C@@H]2CCCN2C(=O)[C@H](CC(N)=O)NC(=O)[C@H](CC(N)=O)NC(=O)[C@H](C(C)C)NC(=O)[C@H](CO)NC(=O)[C@@H]2CSSC[C@H](NC(=O)CN)C(=O)N[C@@H](CSSC[C@@H](C(N)=O)NC1=O)C(=O)N[C@@H]([C@@H](C)O)C(=O)N[C@@H](Cc1cnc[nH]1)C(=O)N1CCC[C@H]1C(=O)N[C@@H](C)C(=O)N2 (H-GCCTHPACSVNNPDIC-NH2; disulfide 2-8, 3-16) showed an inhibition of 10%.
CC[C@H](C)[C@@H]1NC(=O)[C@H](CC(=O)O)NC(=O)[C@@H]2CCCN2C(=O)[C@H](CC(N)=O)NC(=O)[C@H](CC(N)=O)NC(=O)[C@H](CCCNC(N)=O)NC(=O)[C@H](CO)NC(=O)[C@@H]2CSSC[C@H](NC(=O)CN)C(=O)N[C@@H](CSSC[C@@H](C(N)=O)NC1=O)C(=O)N[C@@H](CO)C(=O)N[C@@H](Cc1cnc[nH]1)C(=O)N1CCC[C@H]1C(=O)N[C@@H](C)C(=O)N2 (H-GCCSHPACS[Cit]NNPDIC-NH2; disulfide 2-8, 3-16) showed an inhibition of less than 5%.

Same assay, conditions: Oocyte, filed as antagonist
For CC[C@H](C)[C@@H]1NC(=O)[C@H](CC(=O)O)NC(=O)[C@@H]2CCCN2C(=O)[C@H](CC(N)=O)NC(=O)[C@H](CC(N)=O)NC(=O)[C@H](CN)NC(=O)[C@H](CO)NC(=O)[C@@H]2CSSC[C@H](NC(=O)CN)C(=O)N[C@@H](CSSC[C@@H](C(N)=O)NC1=O)C(=O)N[C@@H](CO)C(=O)N[C@@H](Cc1c[nH]cn1)C(=O)N1CCC[C@H]1C(=O)N[C@@H](C)C(=O)N2 (H-GCCSHPACS[Dap]NNPDIC-NH2; disulfide 2-8, 3-16), the inhibition was “Active”.
CC[C@H](C)[C@@H]1NC(=O)[C@H](CC(=O)O)NC(=O)[C@@H]2CCCN2C(=O)[C@H](CC(N)=O)NC(=O)[C@H](CC(N)=O)NC(=O)[C@H](C(C)C)NC(=O)C(CN)NC(=O)[C@@H]2CSSC[C@H](NC(=O)CN)C(=O)N[C@@H](CSSC[C@@H](C(N)=O)NC1=O)C(=O)NC(CN)C(=O)N[C@@H](Cc1cnc[nH]1)C(=O)N1CCC[C@H]1C(=O)N[C@@H](C)C(=O)N2 (stereo not given in full) (H-GCC[ξDap]HPAC[ξDap]VNNPDIC-NH2; disulfide 2-8, 3-16) showed an inhibition greater than 95%.
For CC[C@H](C)[C@@H]1NC(=O)[C@H](CC(=O)O)NC(=O)[C@@H]2CCCN2C(=O)[C@H](CC(N)=O)NC(=O)[C@H](CC(N)=O)NC(=O)[C@H](C(C)C)NC(=O)C(CN)NC(=O)[C@@H]2CSSC[C@H](NC(=O)CN)C(=O)N[C@@H](CSSC[C@@H](C(N)=O)NC1=O)C(=O)N[C@@H](CO)C(=O)N[C@@H](Cc1cnc[nH]1)C(=O)N1CCC[C@H]1C(=O)N[C@@H](C)C(=O)N2 (stereo not given in full) (H-GCCSHPAC[ξDap]VNNPDIC-NH2; disulfide 2-8, 3-16), the inhibition was 80%.
CC[C@H](C)[C@@H]1NC(=O)[C@H](CC(=O)O)NC(=O)[C@@H]2CCCN2C(=O)[C@H](CC(N)=O)NC(=O)[C@H](CC(N)=O)NC(=O)[C@H](C(C)C)NC(=O)[C@H](CO)NC(=O)[C@@H]2CSSC[C@H](NC(=O)CN)C(=O)N[C@@H](CSSC[C@@H](C(N)=O)NC1=O)C(=O)NC(CCN)C(=O)N[C@@H](Cc1cnc[nH]1)C(=O)N1CCC[C@H]1C(=O)N[C@@H](C)C(=O)N2 (stereo not given in full) (H-GCC[ξDab]HPACSVNNPDIC-NH2; disulfide 2-8, 3-16) was tested, and the inhibition was greater than 85%.
CC[C@H](C)[C@@H]1NC(=O)[C@H](CC(=O)O)NC(=O)[C@@H]2CCCN2C(=O)[C@H](CC(N)=O)NC(=O)[C@H](CC(N)=O)NC(=O)C(CN)NC(=O)[C@H](CO)NC(=O)[C@@H]2CSSC[C@H](NC(=O)CN)C(=O)N[C@@H](CSSC[C@@H](C(N)=O)NC1=O)C(=O)N[C@@H](CO)C(=O)N[C@@H](Cc1cnc[nH]1)C(=O)N1CCC[C@H]1C(=O)N[C@@H](C)C(=O)N2 (stereo not given in full) (H-GCCSHPACS[ξDap]NNPDIC-NH2; disulfide 2-8, 3-16) gave an inhibition greater than 90%.
In the case of CC[C@H](C)[C@@H]1NC(=O)[C@H](CC(=O)O)NC(=O)[C@@H]2CCCN2C(=O)[C@H](CC(N)=O)NC(=O)[C@H](CC(N)=O)NC(=O)C(CCN)NC(=O)[C@H](CO)NC(=O)[C@@H]2CSSC[C@H](NC(=O)CN)C(=O)N[C@@H](CSSC[C@@H](C(N)=O)NC1=O)C(=O)N[C@@H](CO)C(=O)N[C@@H](Cc1cnc[nH]1)C(=O)N1CCC[C@H]1C(=O)N[C@@H](C)C(=O)N2 (stereo not given in full) (H-GCCSHPACS[ξDab]NNPDIC-NH2; disulfide 2-8, 3-16), the inhibition is reported as “Active”.
With CC[C@H](C)[C@@H]1NC(=O)[C@H](CC(=O)O)NC(=O)[C@@H]2CCCN2C(=O)[C@H](CC(N)=O)NC(=O)[C@H](CC(N)=O)NC(=O)[C@H](C(C)C)NC(=O)[C@H](CN)NC(=O)[C@@H]2CSSC[C@H](NC(=O)CN)C(=O)N[C@@H](CSSC[C@@H](C(N)=O)NC1=O)C(=O)N[C@@H](CO)C(=O)N[C@@H](Cc1c[nH]cn1)C(=O)N1CCC[C@H]1C(=O)N[C@@H](C)C(=O)N2 (H-GCCSHPAC[Dap]VNNPDIC-NH2; disulfide 2-8, 3-16) the inhibition was “Active”.
With CC[C@H](C)[C@@H]1NC(=O)[C@H](CC(=O)O)NC(=O)[C@@H]2CCCN2C(=O)[C@H](CC(N)=O)NC(=O)[C@H](CC(N)=O)NC(=O)[C@H](CCCNC(=N)N)NC(=O)[C@H](CO)NC(=O)[C@@H]2CSSC[C@H](NC(=O)CN)C(=O)N[C@@H](CSSC[C@@H](C(N)=O)NC1=O)C(=O)N[C@@H](CO)C(=O)N[C@@H](Cc1cnc[nH]1)C(=O)N1CCC[C@H]1C(=O)N[C@@H](C)C(=O)N2 (H-GCCSHPACSRNNPDIC-NH2; disulfide 2-8, 3-16) the inhibition was 60%.
CC[C@H](C)[C@@H]1NC(=O)[C@H](CC(=O)O)NC(=O)[C@@H]2CCCN2C(=O)[C@H](CC(N)=O)NC(=O)[C@H](CC(N)=O)NC(=O)[C@H](C(C)C)NC(=O)[C@H](CO)NC(=O)[C@@H]2CSSC[C@H](NC(=O)CN)C(=O)N[C@@H](CSSC[C@@H](C(=O)N[C@@H](CCCNC(=N)N)C(N)=O)NC1=O)C(=O)N[C@@H](CO)C(=O)N[C@@H](Cc1cnc[nH]1)C(=O)N1CCC[C@H]1C(=O)N[C@@H](C)C(=O)N2 (H-GCCSHPACSVNNPDICR-NH2; disulfide 2-8, 3-16) was tested, and the inhibition was 60%.
For CC[C@H](C)[C@@H]1NC(=O)[C@H](CC(=O)O)NC(=O)[C@@H]2CCCN2C(=O)[C@H](CC(N)=O)NC(=O)[C@H](CC(N)=O)NC(=O)C(CN)NC(=O)[C@H](CO)NC(=O)[C@@H]2CSSC[C@H](NC(=O)CN)C(=O)N[C@@H](CSSC[C@@H](C(N)=O)NC1=O)C(=O)NC(CN)C(=O)N[C@@H](Cc1cnc[nH]1)C(=O)N1CCC[C@H]1C(=O)N[C@@H](C)C(=O)N2 (stereo not given in full) (H-GCC[ξDap]HPACS[ξDap]NNPDIC-NH2; disulfide 2-8, 3-16), the inhibition was greater than 95%.
Compound CC[C@H](C)[C@@H]1NC(=O)[C@H](CC(=O)O)NC(=O)[C@@H]2CCCN2C(=O)[C@H](CC(N)=O)NC(=O)[C@H](CC(N)=O)NC(=O)[C@H](C(C)C)NC(=O)[C@H](CO)NC(=O)[C@@H]2CSSC[C@H](NC(=O)CN)C(=O)N[C@@H](CSSC[C@@H](C(N)=O)NC1=O)C(=O)N[C@@H](CCCNC(=N)N)C(=O)N[C@@H](Cc1cnc[nH]1)C(=O)N1CCC[C@H]1C(=O)N[C@@H](C)C(=O)N2 (H-GCCRHPACSVNNPDIC-NH2; disulfide 2-8, 3-16) has an inhibition greater than 85%.
